Measured values reported in PubChem BioAssay AID248 (DTP/NCI, 2004).
Where “and” joins values, the source holds several entries; their conditions need not be identical. Equal entries are not always repeated. Toxic doses and inconclusive results are not listed.

Tested on: L1210 leukemia ip in BDF1 mice, survival T/C
Assay: NCI In Vivo Anticancer Drug Screen. Data for tumor model L1210 Leukemia (intraperitoneal) in B6D2F1 (BDF1) mice
Details: endpoint: mean survival time, higher = longer survival
Procedure, shortened: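 Survival endpoint. Drug-treated group vs vehicle group, expressed as T divided by C. Tumor passaged by transplantation.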

[1] = dose: 100.0 mg/kg/injection, schedule: Q01DX009 (ip), vehicle: Klucel (hydroxypropylcellulose) (HPC)
[2] = dose: 100.0 mg/kg/injection, schedule: Q04DX003 (ip), vehicle: Klucel (hydroxypropylcellulose) (HPC)
[3] = dose: 200.0 mg/kg/injection, schedule: Q01DX009 (ip), vehicle: Klucel (hydroxypropylcellulose) (HPC)
[4] = dose: 200.0 mg/kg/injection, schedule: Q04DX003 (ip), vehicle: Klucel (hydroxypropylcellulose) (HPC)
[5] = dose: 100.0 mg/kg/injection, schedule: Q01DX001 (ip), vehicle: carboxymethylcellulose (CMC)
[6] = dose: 200.0 mg/kg/injection, schedule: Q01DX001 (ip), vehicle: carboxymethylcellulose (CMC)
[7] = dose: 400.0 mg/kg/injection, schedule: Q01DX001 (ip), vehicle: carboxymethylcellulose (CMC)
[8] = dose: 400.0 mg/kg/injection, schedule: Q04DX003 (ip), vehicle: Klucel (hydroxypropylcellulose) (HPC)
[9] = dose: 100.0 mg/kg/injection, schedule: Q04DX003 (ip), vehicle: saline with Tween-80
[10] = dose: 200.0 mg/kg/injection, schedule: Q04DX003 (ip), vehicle: saline with Tween-80
[11] = dose: 400.0 mg/kg/injection, schedule: Q04DX003 (ip), vehicle: saline with Tween-80
[12] = dose: 100.0 mg/kg/injection, schedule: Q01DX001 (ip), vehicle: saline
[13] = dose: 200.0 mg/kg/injection, schedule: Q01DX001 (ip), vehicle: saline
[14] = dose: 400.0 mg/kg/injection, schedule: Q01DX001 (ip), vehicle: saline

Structure (SMILES): Oc1cccc2cccnc12.[Al]
- T/C (dose: 10.0 mg/kg/injection, schedule: Q01DX Z (ip), vehicle: carboxymethylcellulose (CMC)): 93 % of control
- T/C (dose: 20.0 mg/kg/injection, schedule: Q01DX Z (ip), vehicle: carboxymethylcellulose (CMC)): 97 % of control
- T/C (dose: 40.0 mg/kg/injection, schedule: Q01DX Z (ip), vehicle: carboxymethylcellulose (CMC)): 93 % of control
- T/C (dose: 50.0 mg/kg/injection, schedule: Q01DX009 (ip), vehicle: Klucel (hydroxypropylcellulose) (HPC)): 94 % of control
- T/C (dose: 50.0 mg/kg/injection, schedule: Q04DX003 (ip), vehicle: Klucel (hydroxypropylcellulose) (HPC)): 101 % of control
- T/C [1]: 100 % of control
- T/C [2]: 102 % of control
- T/C [3]: 96 % of control
- T/C [4]: 101 % of control

Structure (SMILES): O=C1CC(=O)N(Cc2ccccc2)C(=O)N1Cc1ccccc1
- T/C [5]: 86 % of control
- T/C [6]: 92 % of control
- T/C [7]: 90 % of control

Structure (SMILES): CCCCCCCCCC(C)(O)C#CC(C)(O)CCCCCCCCC (stereo not drawn)
- T/C (dose: 50.0 mg/kg/injection, schedule: Q01DX001 (ip), vehicle: carboxymethylcellulose (CMC)): 93 % of control
- T/C (dose: 50.0 mg/kg/injection, schedule: Q04DX003 (ip), vehicle: carboxymethylcellulose (CMC)): 91 % of control
- T/C [5]: 95 % of control
- T/C (dose: 100.0 mg/kg/injection, schedule: Q04DX003 (ip), vehicle: carboxymethylcellulose (CMC)): 89 % of control
- T/C [6]: 91 % of control
- T/C (dose: 200.0 mg/kg/injection, schedule: Q04DX003 (ip), vehicle: carboxymethylcellulose (CMC)): 89 % of control
- T/C [7]: 100 % of control

Structure (SMILES): CCCCCCCCC1CCCC2C(C)CCC(C)C12 (stereo not drawn)
- T/C (dose: 75.0 mg/kg/injection, schedule: Q01DX001 (ip), vehicle: saline): 96 % of control
- T/C (dose: 150.0 mg/kg/injection, schedule: Q01DX001 (ip), vehicle: saline): 95 % of control
- T/C (dose: 300.0 mg/kg/injection, schedule: Q01DX001 (ip), vehicle: saline): 104 % of control

Structure (SMILES): Nn1c(=O)[nH][nH]c1=O
- T/C [1]: 113 % of control
- T/C [2]: 97 % of control and 109 % of control
- T/C [3]: 97 % of control
- T/C [4]: 105 % of control and 91 % of control
- T/C [8]: 109 % of control

Structure (SMILES): CCCCCCCCCCCCCCCCCC(=O)OCCC(C)CCCC(C)C (stereo not drawn)
- T/C (dose: 100.0 mg/kg/injection, schedule: Q04DX003 (ip), vehicle: other): 96 % of control
- T/C (dose: 200.0 mg/kg/injection, schedule: Q04DX003 (ip), vehicle: other): 98 % of control
- T/C (dose: 400.0 mg/kg/injection, schedule: Q04DX003 (ip), vehicle: other): 88 % of control

Structure (SMILES): Cc1ccc(S(=O)(=O)N/N=C(/c2ccccc2)c2cccs2)cc1
- T/C (dose: 100.0 mg/kg/injection, schedule: Q01DX009 (ip), vehicle: saline with Tween-80): 102 % of control
- T/C [9]: 90 % of control
- T/C (dose: 200.0 mg/kg/injection, schedule: Q01DX009 (ip), vehicle: saline with Tween-80): 91 % of control
- T/C [10]: 96 % of control
- T/C [11]: 96 % of control

Structure (SMILES): O=C1/C=C2/C=CC=CN2C(=O)/C=C2/C=CC=CN12
- T/C (dose: 50.0 mg/kg/injection, schedule: Q01DX001 (ip), vehicle: saline): 104 % of control
- T/C [12]: 101 % of control
- T/C [13]: 104 % of control
- T/C [14]: 97 % of control

Structure (SMILES): CC(C)(C)CC(C)(C)NCC#N
- T/C (dose: 6.25 mg/kg/injection, schedule: Q04DX003 (ip), vehicle: Klucel (hydroxypropylcellulose) (HPC)): 92 % of control
- T/C (dose: 12.5 mg/kg/injection, schedule: Q04DX003 (ip), vehicle: Klucel (hydroxypropylcellulose) (HPC)): 95 % of control
- T/C (dose: 25.0 mg/kg/injection, schedule: Q04DX003 (ip), vehicle: Klucel (hydroxypropylcellulose) (HPC)): 92 % of control and 96 % of control

Structure (SMILES): Cc1c(C)c2c(c(C)c1O)CCC(=O)O2
- T/C [9]: 91 % of control
- T/C [10]: 92 % of control
- T/C [11]: 94 % of control

Structure (SMILES): COP1(=O)OCC(C)O1 (stereo not drawn)
- T/C [12]: 113 % of control
- T/C [13]: 102 % of control
- T/C [14]: 94 % of control

Structure (SMILES): C[C@]12CCC(=O)C=C1CC[C@@H]1[C@@H]2[C@@H](O)C[C@@]2(C)[C@H]1CC[C@]2(O)C(=O)COC(=O)c1ccc([N+](=O)[O-])cc1Cl
- T/C (dose: 100.0 mg/kg/injection, schedule: Q01DX001 (sc), vehicle: steriod suspending solution): 101 % of control
- T/C (dose: 200.0 mg/kg/injection, schedule: Q01DX001 (sc), vehicle: steriod suspending solution): 101 % of control
- T/C (dose: 400.0 mg/kg/injection, schedule: Q01DX001 (sc), vehicle: steriod suspending solution): 97 % of control

Structure (SMILES): C=CCOCC1CO1 (stereo not drawn)
- T/C (dose: 75.0 mg/kg/injection, schedule: Q01DX001 (ip), vehicle: acetone): 101 % of control
- T/C (dose: 150.0 mg/kg/injection, schedule: Q01DX001 (ip), vehicle: acetone): 97 % of control
- T/C (dose: 300.0 mg/kg/injection, schedule: Q01DX001 (ip), vehicle: acetone): 105 % of control

Structure (SMILES): NC(=O)c1[nH]cnc1/N=N/N(CCF)CCF
- T/C (dose: 1.87 mg/kg/injection, schedule: Q01DX009 (ip), vehicle: other): 106 % of control
- T/C (dose: 3.75 mg/kg/injection, schedule: Q01DX009 (ip), vehicle: other): 123 % of control
- T/C (dose: 10.0 mg/kg/injection, schedule: Q01DX001 (ip), vehicle: other): 106 % of control
- T/C (dose: 15.0 mg/kg/injection, schedule: Q01DX009 (ip), vehicle: other): 153 % of control

Structure (SMILES): CNc1ccc2cc(Br)ccc2c1
- T/C (dose: 100.0 mg/kg/injection, schedule: Q01DX005 (ip), vehicle: Klucel (hydroxypropylcellulose) (HPC)): 107 % of control
- T/C (dose: 200.0 mg/kg/injection, schedule: Q01DX005 (ip), vehicle: Klucel (hydroxypropylcellulose) (HPC)): 107 % of control
- T/C [4]: 95 % of control
- T/C (dose: 400.0 mg/kg/injection, schedule: Q01DX005 (ip), vehicle: Klucel (hydroxypropylcellulose) (HPC)): 95 % of control
- T/C [8]: 101 % of control

Structure (SMILES): CC(=O)Nc1cccc(C(=O)O)c1O
- T/C [12]: 100 % of control
- T/C [13]: 105 % of control
- T/C [14]: 100 % of control

Structure (SMILES): NC(=O)C1C(=O)OC2(CCCC2)C1c1ccccc1 (stereo not drawn)
- T/C [2]: 101 % of control
- T/C [4]: 93 % of control
- T/C [8]: 97 % of control

Structure (SMILES): O=C(O)C1C2CCCCC2=C2CCCCC2C1C(=O)O (stereo not drawn)
- T/C (dose: 100.0 mg/kg/injection, schedule: Q04DX002 (ip), vehicle: Klucel (hydroxypropylcellulose) (HPC)): 90 % of control
- T/C [9]: 93 % of control
- T/C (dose: 200.0 mg/kg/injection, schedule: Q04DX002 (ip), vehicle: Klucel (hydroxypropylcellulose) (HPC)): 98 % of control
- T/C [10]: 94 % of control
- T/C (dose: 400.0 mg/kg/injection, schedule: Q04DX002 (ip), vehicle: Klucel (hydroxypropylcellulose) (HPC)): 93 % of control
- T/C [11]: 91 % of control

Structure (SMILES): N#CCN(CC#N)CC#N
- T/C (dose: 3.13 mg/kg/injection, schedule: Q04DX003 (ip), vehicle: saline with Tween-80): 102 % of control
- T/C (dose: 6.25 mg/kg/injection, schedule: Q04DX003 (ip), vehicle: saline with Tween-80): 111 % of control

Structure (SMILES): O=c1[nH]c2ccncc2c(=O)n1OS(=O)(=O)c1ccccc1
- T/C (dose: 75.0 mg/kg/injection, schedule: Q01DX009 (ip), vehicle: Klucel (hydroxypropylcellulose) (HPC)): 92 % of control
- T/C (dose: 150.0 mg/kg/injection, schedule: Q01DX009 (ip), vehicle: Klucel (hydroxypropylcellulose) (HPC)): 95 % of control
- T/C (dose: 300.0 mg/kg/injection, schedule: Q01DX009 (ip), vehicle: Klucel (hydroxypropylcellulose) (HPC)): 94 % of control

Structure (SMILES): OC(CC(O)(C(F)(F)F)C(F)(F)F)c1cccs1 (stereo not drawn)
- T/C [9]: 106 % of control
- T/C [10]: 100 % of control
- T/C [11]: 101 % of control

Structure (SMILES): CCCCCCCCC(CCCCCCCC)CCc1ccccc1
- T/C (dose: 100.0 mg/kg/injection, schedule: Q01DX001 (ip), vehicle: saline + alcohol): 101 % of control
- T/C (dose: 200.0 mg/kg/injection, schedule: Q01DX001 (ip), vehicle: saline + alcohol): 100 % of control
- T/C (dose: 400.0 mg/kg/injection, schedule: Q01DX001 (ip), vehicle: saline + alcohol): 97 % of control

Structure (SMILES): Nc1ccc(S(=O)(=O)Nc2ccc(I)cc2)cc1
- T/C [1]: 100 % of control
- T/C [2]: 100 % of control
- T/C [3]: 96 % of control
- T/C [4]: 97 % of control
- T/C (dose: 400.0 mg/kg/injection, schedule: Q01DX009 (ip), vehicle: Klucel (hydroxypropylcellulose) (HPC)): 93 % of control
- T/C [8]: 92 % of control

Structure (SMILES): Cc1ccc(C)c(NC(=O)Nc2cccc3ccccc23)c1
- T/C (dose: 100.0 mg/kg/injection, schedule: Q01DX009 (ip), vehicle: gum acacia): 96 % of control
- T/C [2]: 89 % of control
- T/C (dose: 200.0 mg/kg/injection, schedule: Q01DX009 (ip), vehicle: gum acacia): 100 % of control
- T/C [4]: 93 % of control
- T/C (dose: 400.0 mg/kg/injection, schedule: Q01DX009 (ip), vehicle: gum acacia): 91 % of control
- T/C [8]: 98 % of control
